Measurements taken from patent US20230405003A1, “APPLICATION OF THYMIDINE DERIVATIVE IN PREPARATION OF DRUGS” (ONQUALITY PHARMACEUTICALS CHINA LTD., priority 2020, published 2023).

Legend:
HaCaT cells = assay: Relief of 5-FU proliferative toxicity to HaCaT cells (CCK-8 cell survival); assay type: cell-based; settings: for Cell Survival Rate (increased percentage of cell survival compared with the Group of 5-FU): 5-Fu 20 μM, HaCaT cells; for activation at 1 µM: compound 1 μM; for activation at 10 µM: compound 10 μM; for activation at 100 µM: compound 100 μM; for activation at 500 µM: compound 500 μM; for activation at 1000 µM: compound 1000 μM
Summary of the method: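 HaCaT keratinocytes (5000–10000/well) cultured 24 h, then exposed 48 h to 5-FU alone or with thymidine derivative, or thymidine plus uridine derivative mix, versus solvent-matched blanks. Survival by CCK-8; value is % increase in survival over 5-FU alone, t-test.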

[1] = system: pain in capecitabine hand-foot syndrome rats; assay: Pain of hand-foot syndrome, mechanical sensitivity in rats (von Frey); assay type: in vivo, rat; settings: capecitabine 4000 mg/kg hand-foot syndrome rats; thymidine derivative 3%
Protocol: According to the method of Examples 91-115, after administration of a thymidine derivative (at a concentration of 3%) and co-administration of a thymidine derivative (at a concentration of 1%) with a uridine derivative (at a concentration of 3%) to rat hand-foot syndrome models constructed from 4000 mg/kg of capecitabine for a period of time, pain analysis was performed on the rats, and the pain assessment model was mechanical sensitivity in rats (von Frey). The experimental steps were as follows: first, the rats were allowed to adapt in the room for 1 hour, then the rats were placed in an observation box with a metal mesh floor, and the mice were allowed to stay in the box for 20 minutes to adapt to the experimental platform. Next, a von Frey device was used to detect paw pain by stimulating the surface of the rat's palm with specially designed cilia to detect the mechanical sensitivity of the animal at strength of 0.4 g, 0.8 g, 1.5 g, 2.5 g, 4 g, 8 g, 10 g and 20 g (IITC Life Science, Woodland Hills, 2390 series). […] The rat movement response was considered to be a vague response, in which case the stimulation experiment was repeated.

[2] = selected compound final concentration 3.13 μM
[3] = selected compound final concentration 6.25 μM
[4] = selected compound final concentration 12.5 μM
[5] = selected compound final concentration 25 μM
[6] = selected compound final concentration 50 μM
[7] = Homo sapiens, HaCaT, increase vs Group of 5-FU, 5-FU 20 μM, 48 h, read-out: Cell Survival Rate
[8] = selected compound final concentration 0.8 μM
[9] = selected compound final concentration 1.6 μM

For `Cc1ccc(C(=O)c2ccc(CC(=O)OC[C@H]3O[C@@H](n4cc(C)c(=O)[nH]c4=O)C[C@@H]3O)n2C)cc1` [T36], the “Cell Survival Rate (increased percentage of cell survival compared with the Group of 5-FU)” value (HaCaT cells; [2]) was 27%-35%, the “Cell Survival Rate (increased percentage of cell survival compared with the Group of 5-FU)” value (HaCaT cells; [3]) was 38%-46% and the “Cell Survival Rate (increased percentage of cell survival compared with the Group of 5-FU)” value (HaCaT cells; [4]) was 52%-60%. The “Cell Survival Rate (increased percentage of cell survival compared with the Group of 5-FU)” value (HaCaT cells; [5]) was 53%-61%, the “Cell Survival Rate (increased percentage of cell survival compared with the Group of 5-FU)” value (HaCaT cells; [6]) was 49%-57% and the “pain in rats (von Frey mechanical sensitivity)” value (“pain in rats” for short) [1] was “could significantly improve pain in rats”.

In the case of `Cc1cn([C@H]2C[C@H](O)[C@@H](COC(=O)[C@H](C)c3ccc(CC(C)C)cc3)O2)c(=O)[nH]c1=O` [T32], the “Cell Survival Rate (increased percentage of cell survival compared with the Group of 5-FU)” value (HaCaT cells; [2]) is reported as 35%-41%, the “Cell Survival Rate (increased percentage of cell survival compared with the Group of 5-FU)” value (HaCaT cells; [3]) is reported as 29%-36% and the “Cell Survival Rate (increased percentage of cell survival compared with the Group of 5-FU)” value (HaCaT cells; [4]) is reported as 46%-52%. The “Cell Survival Rate (increased percentage of cell survival compared with the Group of 5-FU)” value (HaCaT cells; [5]) was 53%-60%, the “Cell Survival Rate (increased percentage of cell survival compared with the Group of 5-FU)” value (HaCaT cells; [6]) was 59%-66% and the “Cell Survival Rate (increased percentage of cell survival compared with the Group of 5-FU)” value (HaCaT cells; selected compound final concentration 100 μM) was 78%-85%. The “pain in rats” value [1] was “could significantly improve pain in rats”.

`CC(=O)OC[C@H]1O[C@@H](n2cc(C)c(=O)[nH]c2=O)C[C@@H]1O` [T3] gave an activation at 1 µM (HaCaT cells; [7]) of 13 to 18%, an activation at 10 µM (HaCaT cells; [7]) of 30 to 38% and an activation at 100 µM (HaCaT cells; [7]) of 80 to 86%. It also gave an activation at 500 µM (HaCaT cells; [7]) of 69 to 75% and an activation at 1000 µM (HaCaT cells; [7]) of 58 to 65%.

`Cc1ccc(C(=O)c2ccc(CC(=O)O[C@H]3C[C@H](n4cc(C)c(=O)[nH]c4=O)O[C@@H]3CO)n2C)cc1` [T45] was tested, and the “Cell Survival Rate (increased percentage of cell survival compared with the Group of 5-FU)” value (HaCaT cells; [8]) was 34%-41%, the “Cell Survival Rate (increased percentage of cell survival compared with the Group of 5-FU)” value (HaCaT cells; [9]) was 39%-46% and the “Cell Survival Rate (increased percentage of cell survival compared with the Group of 5-FU)” value (HaCaT cells; [2]) was 63%-70%. The “Cell Survival Rate (increased percentage of cell survival compared with the Group of 5-FU)” value (HaCaT cells; [3]) was 59%-67%, the “Cell Survival Rate (increased percentage of cell survival compared with the Group of 5-FU)” value (HaCaT cells; [4]) was 48%-55% and the “Cell Survival Rate (increased percentage of cell survival compared with the Group of 5-FU)” value (HaCaT cells; [5]) was 44%-51%. The “Cell Survival Rate (increased percentage of cell survival compared with the Group of 5-FU)” value (HaCaT cells; [6]) was 39%-46% and the “pain in rats” value [1] was “could significantly improve pain in rats”.

For `Cc1cn([C@H]2C[C@H](OC(=O)C(C)c3cccc(C(=O)c4ccccc4)c3)[C@@H](CO)O2)c(=O)[nH]c1=O` (stereo partly shown) [T50], the “Cell Survival Rate (increased percentage of cell survival compared with the Group of 5-FU)” value (HaCaT cells; selected compound final concentration 2 μM) was 13%-20%, the “Cell Survival Rate (increased percentage of cell survival compared with the Group of 5-FU)” value (HaCaT cells; selected compound final concentration 4 μM) was 26%-33% and the “Cell Survival Rate (increased percentage of cell survival compared with the Group of 5-FU)” value (HaCaT cells; selected compound final concentration 8 μM) was 36%-43%. The “Cell Survival Rate (increased percentage of cell survival compared with the Group of 5-FU)” value (HaCaT cells; selected compound final concentration 16 μM) was 47%-53%, the “Cell Survival Rate (increased percentage of cell survival compared with the Group of 5-FU)” value (HaCaT cells; selected compound final concentration 32 μM) was 68%-76% and the “Cell Survival Rate (increased percentage of cell survival compared with the Group of 5-FU)” value (HaCaT cells; selected compound final concentration 62.5 μM) was 74%-82%. The “Cell Survival Rate (increased percentage of cell survival compared with the Group of 5-FU)” value (HaCaT cells; selected compound final concentration 125 μM) was 75%-85%, the “Cell Survival Rate (increased percentage of cell survival compared with the Group of 5-FU)” value (HaCaT cells; selected compound final concentration 250 μM) was 75%-82% and the “Cell Survival Rate (increased percentage of cell survival compared with the Group of 5-FU)” value (HaCaT cells; selected compound final concentration 500 μM) was 65%-73%. For the same molecule, the “Cell Survival Rate (increased percentage of cell survival compared with the Group of 5-FU)” value (HaCaT cells; selected compound final concentration 1000 μM) was 58%-65% and the “pain in rats” value [1] was “could significantly improve pain in rats”.

`CC(=O)O[C@H]1C[C@H](n2cc(C)c(=O)[nH]c2=O)O[C@@H]1CO` [T2] gave an activation at 1 µM (HaCaT cells; [7]) of 14 to 18%, an activation at 10 µM (HaCaT cells; [7]) of 35 to 45% and an activation at 100 µM (HaCaT cells; [7]) of 70 to 80%. The activation at 500 µM (HaCaT cells; [7]) was 75 to 85% and the activation at 1000 µM (HaCaT cells; [7]) was 60 to 70%.

`COc1ccc2cc([C@H](C)C(=O)OC[C@H]3O[C@@H](n4cc(C)c(=O)[nH]c4=O)C[C@@H]3O)ccc2c1` [T25] was tested, and the “pain in rats” value [1] was “could significantly improve pain in rats”.

`CC(=O)OCC1OC(n2cc(C)c(=O)[nH]c2=O)CC1OC(C)=O` (stereo not shown) [T1] showed an activation at 5 µM (HaCaT cells; Homo sapiens, HaCaT, increase vs Group of 5-FU, 5-FU 20 μM, compound 5 μM, 48 h, read-out: Cell Survival Rate) of 1 to 6%, an activation at 10 µM (HaCaT cells; [7]) of 10 to 16% and an activation at 50 µM (HaCaT cells; Homo sapiens, HaCaT, increase vs Group of 5-FU, 5-FU 20 μM, compound 50 μM, 48 h, read-out: Cell Survival Rate) of 21 to 26%. For the same molecule, the activation at 100 µM (HaCaT cells; [7]) was 31 to 37%, the activation at 200 µM (HaCaT cells; Homo sapiens, HaCaT, increase vs Group of 5-FU, 5-FU 20 μM, compound 200 μM, 48 h, read-out: Cell Survival Rate) was 42 to 48% and the activation at 500 µM (HaCaT cells; [7]) was 36 to 41%. For the same molecule, the activation at 1000 µM (HaCaT cells; [7]) was 35 to 42%, the activation at 1500 µM (HaCaT cells; Homo sapiens, HaCaT, increase vs Group of 5-FU, 5-FU 20 μM, compound 1500 μM, 48 h, read-out: Cell Survival Rate) was 29 to 33% and the activation at 3000 µM (HaCaT cells; Homo sapiens, HaCaT, increase vs Group of 5-FU, 5-FU 20 μM, compound 3000 μM, 48 h, read-out: Cell Survival Rate) was 17 to 23%. For the same molecule, the “pain in rats” value [1] was “did not significantly improve pain in rats”.

In the case of `Cc1cn([C@H]2C[C@H](O)[C@@H](COC(=O)C(C)c3cccc(Oc4ccccc4)c3)O2)c(=O)[nH]c1=O` (stereo partly drawn) [T27, ((2R,3S, 5R)-3-hydroxyl-5-(5-methyl-2,4-dioxy-3,4-dihydropyrimidin-1(2H)-yl)tetrahydrofuran-2-yl)2-(3-phenoxyphenyl)propionate Methyl], the “Cell Survival Rate (increased percentage of cell survival compared with the Group of 5-FU)” value (HaCaT cells; [9]) is reported as 39%-45%, the “Cell Survival Rate (increased percentage of cell survival compared with the Group of 5-FU)” value (HaCaT cells; [2]) is reported as 51%-58% and the “Cell Survival Rate (increased percentage of cell survival compared with the Group of 5-FU)” value (HaCaT cells; [3]) is reported as 54%-61%. For the same molecule, the “Cell Survival Rate (increased percentage of cell survival compared with the Group of 5-FU)” value (HaCaT cells; [4]) was 51%-59%, the “Cell Survival Rate (increased percentage of cell survival compared with the Group of 5-FU)” value (HaCaT cells; [5]) was 49%-57% and the “Cell Survival Rate (increased percentage of cell survival compared with the Group of 5-FU)” value (HaCaT cells; [6]) was 46%-53%. For the same molecule, the “pain in rats” value [1] was “could significantly improve pain in rats”.

In the case of `CC1=C(CC(=O)OC[C@H]2O[C@@H](n3cc(C)c(=O)[nH]c3=O)C[C@@H]2O)c2cc(F)ccc2/C1=C\c1ccc([S+](C)[O-])cc1` (stereo partly shown) [T40], the “Cell Survival Rate (increased percentage of cell survival compared with the Group of 5-FU)” value (HaCaT cells; [8]) is reported as 42%-50%, the “Cell Survival Rate (increased percentage of cell survival compared with the Group of 5-FU)” value (HaCaT cells; [9]) is reported as 57%-65% and the “Cell Survival Rate (increased percentage of cell survival compared with the Group of 5-FU)” value (HaCaT cells; [2]) is reported as 45%-52%. For the same molecule, the “Cell Survival Rate (increased percentage of cell survival compared with the Group of 5-FU)” value (HaCaT cells; [3]) was 47%-56%, the “Cell Survival Rate (increased percentage of cell survival compared with the Group of 5-FU)” value (HaCaT cells; [4]) was 49%-54% and the “Cell Survival Rate (increased percentage of cell survival compared with the Group of 5-FU)” value (HaCaT cells; [5]) was 58%-65%. For the same molecule, the “Cell Survival Rate (increased percentage of cell survival compared with the Group of 5-FU)” value (HaCaT cells; [6]) was 48%-55%.
